Experimental data: patent US20240197716A1, “TREATMENTS FOR CUSHING'S SYNDROME THAT DO NOT SIGNIFICANTLY AFFECT CARDIAC RHYTHMS” (Corcept Therapeutics Incorporated, priority 2022, published 2024)
Starred links: 1 amine or outer side, 2 acyl side, 3 side chain; linkers in the order of their positions; H or OH if unused. Non-standard residues stand in square brackets, D forms with d. Residues, ends and D or L forms follow the SMILES beside them. Groups on a side chain read outwards from the residue. *: point of attachment. Ethylenediamine = C(CN[*:2])N[*:1]; Hyp = O=C(O)[C@@H]1C[C@@H](O)CN1; Phg = N[C@H](C(=O)O)c1ccccc1; CO = O=C([*:1])[*:2]; Bn = c1ccc(C*)cc1

Assays:
[1] = test system: QT interval; conditions: in vivo; cited from earlier work
[2] = test system: cardiac repolarization in healthy volunteers; test: Thorough QT/QTc (TQT) study (NCT04795479), cardiodynamic Holter ECG
Text: These studies included a randomized, partial double-blind, placebo- and positive-controlled, multiple-dose, 4-way crossover, thorough QT/QTc (TQT) study to investigate the effect of relacorilant on cardiac repolarization. These studies measured placebo-corrected change-from-baseline QTcF (ΔΔQTcF); change-from-baseline of QTcF, HR, and PR and QRS intervals (ΔQTcF, ΔHR, ΔPR, and ΔQRS); placebo-corrected change-from-baseline of HR, and PR and QRS intervals (ΔΔHR, ΔΔPR, and ΔΔQRS); categorical outliers for QTcF, HR, and PR and QRS intervals; the frequency of treatment-emergent changes of T-wave morphology and presence of U-waves; PK parameters of relacorilant and its metabolites (CORT125337, CORT125336, and CORT125295) and moxifloxacin; safety profiles, including AEs/SAEs, physical examination, clinical chemistry, hematology, urinalysis, ECG, and vital signs.
A phase 1, randomized, partial double-blind, crossover thorough QT study (NCT04795479) to assess the effect of multiple doses of relacorilant on cardiac repolarization in healthy volunteers. Participants were randomized to dosing sequences to receive relacorilant at therapeutic (400 mg QD, n=25) or supra-therapeutic (800 mg QD, n=28) doses, or placebo (n=29) for 5 days. Moxifloxacin (400 mg single dose, n=28) was used as a positive control.
Each subject received 4 treatments in a randomized sequence during the study period. Each dosing consisted of 8 capsules (except for moxifloxacin on Day 5), including: • Treatment T: Multiple oral doses of 400 mg relacorilant (4 capsules)+placebo for relacorilant (4 capsules) once daily for 5 days; • Treatment ST: Multiple oral doses of 800 mg relacorilant (8 capsules) once daily for 5 days; • Treatment P: Multiple oral doses of placebo for relacorilant (8 capsules) once daily for 5 days; • Treatment M: Multiple oral doses of placebo for relacorilant (8 capsules) once daily for 4 days and a final single oral dose of 400 mg moxifloxacin (one tablet) on Day 5.
In a portion of present study conducted in healthy subjects, a single dose of moxifloxacin (400 mg; Treatment M) on the last day of its respective treatment period was included as a positive control to determine the sensitivity of the study to detect small QTc changes. Relacorilant doses included both a therapeutic dose level (400 mg; Treatment T) and a supra-therapeutic dose level (800 mg; Treatment ST). The study was blinded to subjects, investigator, study staff, and sponsor with respect to relacorilant (Treatments T and ST) and placebo for relacorilant (Treatment P); it was open-labeled for moxifloxacin (Treatment M). Enrolled subjects were randomized to one of twelve (12) dosing sequences to receive 4 different treatments according to the assigned dosing sequence as shown below:
In each period, subjects were admitted to the clinical site in the morning of Day-1 and stayed in the site until the morning of Day 6. In the study periods when subjects were randomized to Treatment T, ST, or P, the applicable study product (400 mg or 800 mg relacorilant or placebo for relacorilant) were taken once daily in the morning for 5 consecutive days. During the dosing period of positive control (Treatment M), placebo for relacorilant were administered on Days 1 to 4 to align with the dosing schedule for the other three treatments and moxifloxacin were administered in an open-labeled manner as a single dose in the morning of Day 5. Therefore, the treatment on Days 1 to 4 were double-blinded; it was not known before the morning on Day 5 whether or not a subject was allocated to receive moxifloxacin. Each dosing period (from Periods 2 to 4) was separated from the previous period by a washout period of at least 10 days from Day 6 of the previous period to Day 1 (first dose) of the subsequent period to prevent a carryover effect. The final visit was on Day 6 of Period 4. A safety phone follow-up was scheduled at 7 days (±2 days) post the final visit/early termination (ET) visit.

[3] = Plasma concentrations in TQT study (LC-MS/MS, non-compartmental PK); type: in vivo, human; conditions: human, plasma, oral; 400 mg single dose; read-out: Geometric Mean Cmax
Protocol: PK analyses were performed using non-compartmental methods to obtain estimates of the following parameters, where possible: […] Day 1: Cmax, Tmax, AUClast, and AUC0-24; Day 5: Cmax, Tmax, Cmin, AUClast, AUC0-tau, Cavg, FI, and AR. For moxifloxacin: Cmax, Tmax, AUClast, and AUC0-24. […] PK blood sampling for Day 1 was completed prior to dosing on Day 2.

In the case of `CC(=O)N1CCN(c2ccc(OC[C@@H]3CO[C@@](Cn4ccnc4)(c4ccc(Cl)cc4Cl)O3)cc2)CC1` [levoketoconazole], the “effect on QT interval (literature)” value [1] is listed as “associated with QT interval prolongation”.
With `COc1c(N2C[C@@H]3CCCN[C@@H]3C2)c(F)cc2c(=O)c(C(=O)O)cn(C3CC3)c12` [moxifloxacin, 1-cyclopropyl-7-[(S,S)-2,8-diazabicyclo[4.3.0]non-8-yl]-6-fluoro-8-methoxy-1,4-dihydro-4-oxo-3 quinoline carboxylic acid, reference compound] the “LS mean (90% CI) ΔΔQTcF, peak value” ([2]; 400 mg on day 5, 1.5 hours post-dose) was 10.7 (7.3, 14.1) msec, the “QT effect of positive control” value ([2]; 400 mg single dose) was “expected QT prolongation” and the “LS mean (90% CI) ΔQTcF” value ([2]; 400 mg single dose on day 5, 1 hour post-dose) was 5.7 (3.3, 8.2) msec. For the same molecule, the “LS mean (90% CI) ΔQTcF, maximum observed value” ([2]; 400 mg single dose on day 5, 16 hours post-dose) was 9.7 (7.2, 12.2) msec, the “ΔΔQTcF Estimate (msec) (90% CI), predicted at geometric mean Cmax” value ([2]; 400 mg single dose, PK/QTc population) was 8.90 (5.96, 11.85)^2 msec and the “lower bound of the 90% CI around the LS mean ΔΔQTcF” value ([2]; 400 mg, at 4 of the 12 post-dose time points) was “exceeded 5 msec”. For the same molecule, the Cmax [3] was 1870 ng/mL and the “effect on QT interval (literature)” value [1] was “prolong the QT interval of the electrocardiogram in some patients”.
For `N#Cc1ccc([C@H]2CCc3cncn32)c(F)c1` [osilodrostat], the “effect on QT interval (literature)” value [1] is listed as “associated with QT interval prolongation”.
In the case of `NCCCC[C@@H]1NC(=O)[C@@H](Cc2c[nH]c3ccccc23)NC(=O)[C@H](c2ccccc2)NC(=O)[C@@H]2C[C@@H](OC(=O)NCCN)CN2C(=O)[C@H](Cc2ccccc2)NC(=O)[C@H](Cc2ccc(OCc3ccccc3)cc2)NC1=O` [pasoreotide] (cyclo([Hyp]([CO-Ethylenediamine])[Phg][dW]KY(Bn)F)), the “effect on QT interval (literature)” value [1] is given as “associated with QT interval prolongation”.
